According to ChEMBL document CHEMBL1821630, “Synthesis and antitumor activity of new sulfonamide derivatives of thiadiazolo[3,2-a]pyrimidines” (Eur J Med Chem, 2011):
Values after ≈ are worked out from the molar mass of the structure shown. Active and inactive are the calls of the source. The rule behind the calls is not given here.

How the values were obtained:
Nucleic Acid [1] = experiment: Displacement of methyl green dye from DNA after 24 hrs by spectrophotometric analysis; format: nucleic-acid assay
Nucleic Acid [2] = experiment: Binding affinity to DNA using anisaldehyde reagent by TLC method; format: nucleic-acid assay
Mus musculus [3] = experiment: Toxicity in Swiss albino mouse xenografted with mouse EAC assessed as haemoglobin level at 100 ug (reference value: 13.4 per g%); format: organism-based; details: in vivo
Mus musculus [4] = experiment: Toxicity in Swiss albino mouse xenografted with mouse EAC assessed as total WBC level at 100 ug (reference value: 4.35/10^3 mm3); format: organism-based; details: in vivo
[5] = Antitumor activity against mouse EAC cells xenografted in Swiss albino mouse assessed as increase in lifespan of organism at 100 ug administered 24 hrs post inoculation for 9 days; format: functional, Ehrlich
Ehrlich [6] = experiment: Antitumor activity against mouse EAC cells xenografted in Swiss albino mouse assessed as reduction in viable tumor cells at 100 ug after 5 days using giemsa staining by microscopy; format: functional
Mus musculus [7] = experiment: Toxicity in Swiss albino mouse xenografted with mouse EAC assessed as RBC level at 100 ug (reference value: 5.1/10^6 mm-3); format: organism-based; details: in vivo
Mus musculus [8] = experiment: Toxicity in Swiss albino mouse xenografted with mouse EAC assessed as ALT level at 100 ug (reference value: 3.7 u/L); format: organism-based; details: in vivo
Mus musculus [9] = experiment: Toxicity in Swiss albino mouse xenografted with mouse EAC assessed as haemoglobin level at 20 mg/kg, ip (reference value: 13.4 per g%); format: organism-based; design: dose 20 mg/kg, route intraperitoneal; details: in vivo
Mus musculus [10] = experiment: Toxicity in Swiss albino mouse xenografted with mouse EAC assessed as total WBC level at 20 mg/kg, ip (reference value: 4.35/10^3 mm3); format: organism-based; design: dose 20 mg/kg, route intraperitoneal; details: in vivo
Mus musculus [11] = experiment: Toxicity in Swiss albino mouse xenografted with mouse EAC assessed as RBC level at 20 mg/kg, ip (reference value: 5.1/10^6 mm-3); format: organism-based; design: dose 20 mg/kg, route intraperitoneal; details: in vivo
Mus musculus [12] = experiment: Toxicity in Swiss albino mouse xenografted with mouse EAC assessed as ALT level at 20 mg/kg, ip (reference value: 3.7 u/L); format: organism-based; design: dose 20 mg/kg, route intraperitoneal; details: in vivo
[13] = Antitumor activity against mouse EAC cells xenografted in Swiss albino mouse assessed as increase in lifespan of organism at 20 mg/kg, ip administered 24 hrs post inoculation for 9 days; format: functional, Ehrlich; details: route intraperitoneal
Ehrlich [14] = experiment: Antitumor activity against mouse EAC cells xenografted in Swiss albino mouse assessed as reduction in viable tumor cells at 20 mg/kg, ip after 5 days using giemsa staining by microscopy; format: functional, organism-based; design: dose 20 mg/kg

Compound | IC50 (Nucleic Acid [1]) | Activity (Nucleic Acid [2]) | further results
COc1ccc(C2C=C(c3ccc(N)cc3)N=C3SC(S(N)(=O)=O)=NN32)cc1 (centres undefined) | 81 µg/mL (≈ 195 µM) | inactive | –
NS(=O)(=O)c1nn2c(=O)cc(C(=O)NNc3ccccc3)nc2s1 | 81 µg/mL (≈ 221 µM) | inactive | –
Cc1ccc(/N=N/c2c(C)nc3sc(S(N)(=O)=O)nn3c2=O)cc1 | 81 µg/mL (≈ 222 µM) | inactive | –
Cc1nc2sc(S(N)(=O)=O)nn2c(=O)c1/N=N/c1ccc(Cl)cc1 | 74 µg/mL (≈ 192 µM) | – | –
Nc1ccc(C2=CC(c3ccc(Cl)cc3)N3N=C(S(N)(=O)=O)SC3=N2)cc1 (centres undefined) | 64 µg/mL (≈ 152 µM) | Active | Activity (Mus musculus [3]): 11.1%; Activity (Mus musculus [4]): 9.45%; Activity [5]: 71.43%; Activity (Ehrlich [6]): Active; Activity (Mus musculus [7]): 5.96%; Activity (Mus musculus [8]): 6.7%
Cc1nc2sc(S(N)(=O)=O)nn2c(=O)c1/N=N/c1ccc([N+](=O)[O-])cc1 | 81 µg/mL (≈ 205 µM) | inactive | –
O=c1[nH]cc(F)c(=O)[nH]1 [FLUOROURACIL] | – | – | Activity (Mus musculus [9]): 15.6%; Activity (Mus musculus [10]): 14.7%; Activity (Mus musculus [11]): 5.87%; Activity (Mus musculus [12]): 6.9%; Activity [13]: 42.86%; Activity (Ehrlich [14]): Active
NS(=O)(=O)c1nn2c(=O)cc(Cl)nc2s1 | 79 µg/mL (≈ 296 µM) | – | –
Cc1nc2sc(S(N)(=O)=O)nn2c(=O)c1/N=N/c1ccccc1 | 77 µg/mL (≈ 220 µM) | – | –
NS(=O)(=O)C1=NN2C(=NC(c3ccccc3)=CC2c2ccc(Cl)cc2)S1 (centres undefined) | 40 µg/mL (≈ 98.8 µM) | Active | Activity [5]: 42.86%; Activity (Ehrlich [6]): Active
Cc1cc(=O)n2nc(S(N)(=O)=O)sc2n1 | 76 µg/mL (≈ 309 µM) | – | –
N=C1CC(=O)N=C2SC(S([NH-])(=O)=O)=NN12.[Na+] | 76 µg/mL | – | –
NS(=O)(=O)c1nn2c(=O)ccnc2s1 | 70 µg/mL (≈ 301 µM) | – | –
Cc1cccc(C2=CC(c3ccccc3)N3N=C(S(N)(=O)=O)SC3=N2)c1 (centres undefined) | 72 µg/mL (≈ 187 µM) | – | –
COc1ccc(C2C=C(c3ccccc3)N=C3SC(S(N)(=O)=O)=NN32)cc1OC (centres undefined) | 62 µg/mL (≈ 144 µM) | Active | Activity [5]: 57.14%; Activity (Ehrlich [6]): Active
NS(=O)(=O)C1=NN2C(=NC(c3ccccc3)=CC2c2ccc([N+](=O)[O-])cc2)S1 (centres undefined) | 81 µg/mL (≈ 195 µM) | inactive | –
COc1ccc(/N=N/c2c(C)nc3sc(S(N)(=O)=O)nn3c2=O)cc1 | 81 µg/mL (≈ 213 µM) | inactive | –
CC[n+]1c(-c2ccccc2)c2cc(N)ccc2c2ccc(N)cc21.[Br-] [HOMIDIUM BROMIDE] | 1.4 µg/mL | – | –
NS(=O)(=O)C1=NN2C(=NC(c3ccccc3)=CC2c2cc([N+](=O)[O-])ccc2Cl)S1 (centres undefined) | 80 µg/mL (≈ 178 µM) | – | –
Cc1nc2sc(S(N)(=O)=O)nn2c(=O)c1/N=N/c1ccc(Br)cc1 | 74 µg/mL (≈ 172 µM) | – | –
